Patent publication US10344060B2 (priority 2013, dated 2019)
pIC50: −log10 of the molar value. Where two headings read alike, the source gives them in different places.

Target: hNav1.7 (Homo sapiens, UniProt Q15858)
Assay: cell-based
Format: cell-based
Details: for Nav1.4/Nav1.7 / Nav1.5/Nav1.7: ratio of PX tonic IC50 values, Table 11
[1] = Table 12, PatchXpress, tonic block, read-out: PX hNav1.7 Tonic IC50

hNav1.7, sequence (Q15858 whole entry): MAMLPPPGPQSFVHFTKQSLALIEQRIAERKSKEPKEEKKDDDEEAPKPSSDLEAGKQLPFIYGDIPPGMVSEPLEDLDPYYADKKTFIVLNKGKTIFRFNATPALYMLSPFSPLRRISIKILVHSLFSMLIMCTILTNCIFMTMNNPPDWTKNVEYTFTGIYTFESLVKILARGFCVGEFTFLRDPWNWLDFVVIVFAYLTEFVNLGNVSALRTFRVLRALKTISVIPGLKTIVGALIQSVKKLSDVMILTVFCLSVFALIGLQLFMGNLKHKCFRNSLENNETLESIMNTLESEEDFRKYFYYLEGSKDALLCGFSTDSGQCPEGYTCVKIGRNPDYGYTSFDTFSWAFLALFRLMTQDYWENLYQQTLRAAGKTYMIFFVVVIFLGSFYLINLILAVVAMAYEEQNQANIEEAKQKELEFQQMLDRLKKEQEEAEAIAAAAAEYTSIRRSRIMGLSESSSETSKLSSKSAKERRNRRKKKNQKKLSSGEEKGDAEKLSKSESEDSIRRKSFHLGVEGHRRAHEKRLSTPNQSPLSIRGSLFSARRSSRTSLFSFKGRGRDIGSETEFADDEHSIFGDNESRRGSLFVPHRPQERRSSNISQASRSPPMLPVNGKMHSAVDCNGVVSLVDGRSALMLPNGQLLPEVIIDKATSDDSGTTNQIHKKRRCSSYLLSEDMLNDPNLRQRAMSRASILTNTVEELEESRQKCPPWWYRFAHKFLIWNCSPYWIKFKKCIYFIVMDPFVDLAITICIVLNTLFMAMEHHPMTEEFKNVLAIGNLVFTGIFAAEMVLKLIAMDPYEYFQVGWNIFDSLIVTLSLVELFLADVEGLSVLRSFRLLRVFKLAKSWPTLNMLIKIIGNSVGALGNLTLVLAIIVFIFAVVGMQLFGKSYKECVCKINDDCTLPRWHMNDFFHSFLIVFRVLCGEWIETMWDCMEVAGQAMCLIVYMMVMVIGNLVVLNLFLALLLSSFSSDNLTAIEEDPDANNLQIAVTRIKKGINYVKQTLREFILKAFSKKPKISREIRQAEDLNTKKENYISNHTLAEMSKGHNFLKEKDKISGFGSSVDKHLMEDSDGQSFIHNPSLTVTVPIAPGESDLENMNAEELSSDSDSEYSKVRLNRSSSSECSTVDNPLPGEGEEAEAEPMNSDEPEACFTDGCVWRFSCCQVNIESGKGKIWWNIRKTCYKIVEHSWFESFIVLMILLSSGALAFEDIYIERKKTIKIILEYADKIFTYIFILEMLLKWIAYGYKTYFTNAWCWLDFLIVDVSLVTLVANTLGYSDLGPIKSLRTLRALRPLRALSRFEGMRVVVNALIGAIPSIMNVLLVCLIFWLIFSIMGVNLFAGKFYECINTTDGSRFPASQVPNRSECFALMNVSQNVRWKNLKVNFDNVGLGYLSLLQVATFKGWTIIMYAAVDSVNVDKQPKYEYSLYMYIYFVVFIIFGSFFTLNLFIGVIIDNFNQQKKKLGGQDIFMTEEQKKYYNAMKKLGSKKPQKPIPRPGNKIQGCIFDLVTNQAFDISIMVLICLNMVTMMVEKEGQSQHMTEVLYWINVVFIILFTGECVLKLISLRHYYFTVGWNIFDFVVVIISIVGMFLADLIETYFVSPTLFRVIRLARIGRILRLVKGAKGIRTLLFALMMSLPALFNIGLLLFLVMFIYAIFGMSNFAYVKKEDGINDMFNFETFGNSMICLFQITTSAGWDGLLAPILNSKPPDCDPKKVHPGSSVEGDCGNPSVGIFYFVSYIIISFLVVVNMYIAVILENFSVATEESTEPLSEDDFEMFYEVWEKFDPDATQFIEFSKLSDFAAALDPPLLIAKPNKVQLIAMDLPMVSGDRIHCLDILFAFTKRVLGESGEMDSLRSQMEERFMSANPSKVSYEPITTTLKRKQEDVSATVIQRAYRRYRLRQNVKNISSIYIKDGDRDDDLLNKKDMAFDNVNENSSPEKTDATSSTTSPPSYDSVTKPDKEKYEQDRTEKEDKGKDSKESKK

With `CCCC[C@@H]1NC(=O)[C@H](Cc2c[nH]c3ccccc23)NC(=O)[C@H](CCCCN)NC(=O)[C@H](CCC(N)=O)NC(=O)[C@@H](NC(=O)[C@H](Cc2ccc(O)cc2)NC(=O)[C@@H](N)Cc2cn(CCOCCOCCOCCOCCOCCOCCOCCOCCOCCOCCOCCOCCOCCOCCOCCOCCOCCOCCOCCOCCOCCOCCOCCNC(=O)c3cc(CNC(=O)CSCc4ccccc4)cc(C(=O)NCCOCCOCCOCCOCCOCCOCCOCCOCCOCCOCCOCCOCCOCCOCCOCCOCCOCCOCCOCCOCCOCCOCCOCCn4cc(C[C@H](N)C(=O)N[C@@H](Cc5ccc(O)cc5)C(=O)N[C@H]5CSSC[C@@H]6NC(=O)[C@@H]7CSSC[C@@H](C(=O)N[C@@H](CCCNC(=N)N)C(=O)N[C@@H](CCCCN)C(=O)N[C@H](C(=O)N[C@H](C(N)=O)[C@@H](C)CC)[C@@H](C)CC)NC(=O)[C@H](Cc8c[nH]c9ccccc89)NC(=O)[C@H](CC(C)C)NC(=O)[C@H](CCCCN)NC(=O)[C@H](CSSC[C@H](NC(=O)[C@H]([C@@H](C)O)NC(=O)[C@H](Cc8c[nH]c9ccccc89)NC(=O)[C@H](CCCC)NC(=O)[C@H](Cc8c[nH]c9ccccc89)NC(=O)[C@H](CCCCN)NC(=O)[C@H](CCC(N)=O)NC5=O)C(=O)N[C@@H](CC(=O)O)C(=O)N[C@@H](CO)C(=O)N[C@@H](CCCCN)C(=O)N[C@@H](CCCNC(=N)N)C(=O)N[C@@H](C)C(=O)N7)NC(=O)[C@H](CCCNC(=N)N)NC(=O)[C@H](CC(C)C)NC(=O)CNC(=O)[C@H](CCC(=O)O)NC6=O)nn4)c3)nn2)CSSC[C@@H]2NC(=O)[C@@H]3CSSC[C@@H](C(=O)N[C@@H](CCCNC(=N)N)C(=O)N[C@@H](CCCCN)C(=O)N[C@H](C(=O)N[C@H](C(N)=O)[C@@H](C)CC)[C@@H](C)CC)NC(=O)[C@H](Cc4c[nH]c5ccccc45)NC(=O)[C@H](CC(C)C)NC(=O)[C@H](CCCCN)NC(=O)[C@H](CSSC[C@H](NC(=O)[C@H]([C@@H](C)O)NC(=O)[C@H](Cc4c[nH]c5ccccc45)NC1=O)C(=O)N[C@@H](CC(=O)O)C(=O)N[C@@H](CO)C(=O)N[C@@H](CCCCN)C(=O)N[C@@H](CCCNC(=N)N)C(=O)N[C@@H](C)C(=O)N3)NC(=O)[C@H](CCCNC(=N)N)NC(=O)[C@H](CC(C)C)NC(=O)CNC(=O)[C@H](CCC(=O)O)NC2=O` [Homodimeric Peptide No. 2] the Wash out (PatchXpress Nav1.7, whether block washes out (Yes/No)) was “No” and the pIC50 (read-out: Nav1.7 PX IC50) was 9.62.
In the case of `CCCC[C@@H]1NC(=O)[C@H](Cc2c[nH]c3ccccc23)NC(=O)[C@H](CCCCN)NC(=O)[C@H](CCC(N)=O)NC(=O)[C@@H](NC(=O)[C@H](Cc2ccc(O)cc2)NC(=O)[C@H](N)CC(C)C)CSSC[C@@H]2NC(=O)[C@@H]3CSSC[C@@H](C(=O)N[C@@H](CCCNC(=N)N)C(=O)N[C@@H](CCCCN)C(=O)N[C@H](C(=O)N[C@H](C(N)=O)[C@@H](C)CC)[C@@H](C)CC)NC(=O)[C@H](Cc4c[nH]c5ccccc45)NC(=O)[C@H](CC(C)C)NC(=O)[C@H](CCCCN)NC(=O)[C@H](CSSC[C@H](NC(=O)[C@H]([C@@H](C)O)NC(=O)[C@H](Cc4c[nH]c5ccccc45)NC1=O)C(=O)N[C@@H](CC(=O)O)C(=O)N[C@@H](CO)C(=O)N[C@@H](CCCCN)C(=O)N[C@@H](CCCNC(=N)N)C(=O)N[C@@H](C)C(=O)N3)NC(=O)[C@H](CCCNC(=N)N)NC(=O)[C@H](CC(C)C)NC(=O)CNC(=O)[C@H](CCC(=O)O)NC2=O` [compound 373], the Nav1.4/Nav1.7 was 190 and the Nav1.5/Nav1.7 was 2704.
Work on `C#CC[C@H](N)C(=O)N[C@@H](Cc1ccc(O)cc1)C(=O)N[C@H]1CSSC[C@@H]2NC(=O)[C@@H]3CSSC[C@@H](C(=O)N[C@@H](CCCNC(=N)N)C(=O)N[C@@H](CCCCN)C(=O)N[C@@H](CCC(=O)O)C(=O)N[C@H](C(N)=O)[C@@H](C)CC)NC(=O)[C@H](Cc4c[nH]c5ccccc45)NC(=O)[C@H](CC(C)C)NC(=O)[C@H](CCCCN)NC(=O)[C@H](CSSC[C@H](NC(=O)[C@H]([C@@H](C)O)NC(=O)[C@H](Cc4c[nH]c5ccccc45)NC(=O)[C@H](CCCC)NC(=O)[C@H](Cc4c[nH]c5ccccc45)NC(=O)[C@H](CCCCN)NC(=O)[C@H](CCC(N)=O)NC1=O)C(=O)N[C@@H](CC(=O)O)C(=O)N[C@@H](CO)C(=O)N[C@@H](CCCCN)C(=O)N[C@@H](CCCNC(=N)N)C(=O)N[C@@H](C)C(=O)N3)NC(=O)[C@H](CCCNC(=N)N)NC(=O)[C@H](CC(C)C)NC(=O)[C@H](CCC(=O)O)NC(=O)[C@H](CCC(=O)O)NC2=O` [compound 719] yielded a pIC50 [1] of less than 6.00.
In the case of `CCCC[C@@H]1NC(=O)[C@H](Cc2c[nH]c3ccccc23)NC(=O)[C@H](CCCCN)NC(=O)[C@H](CCC(N)=O)NC(=O)[C@@H](NC(=O)[C@H](Cc2ccc(O)cc2)NC(=O)[C@@H](N)CCc2ccccc2)CSSC[C@@H]2NC(=O)[C@@H]3CSSC[C@@H](C(=O)N[C@@H](CCCNC(=N)N)C(=O)N[C@@H](CCCCN)C(=O)N[C@H](C(=O)N[C@H](C(N)=O)[C@@H](C)CC)[C@@H](C)CC)NC(=O)[C@H](Cc4c[nH]c5ccccc45)NC(=O)[C@H](CC(C)C)NC(=O)[C@H](CCCCN)NC(=O)[C@H](CSSC[C@H](NC(=O)[C@H]([C@@H](C)O)NC(=O)[C@H](Cc4c[nH]c5ccccc45)NC1=O)C(=O)N[C@@H](CC(=O)O)C(=O)N[C@@H](CO)C(=O)N[C@@H](CCCCN)C(=O)N[C@@H](CCCNC(=N)N)C(=O)N[C@@H](C)C(=O)N3)NC(=O)[C@H](CCCNC(=N)N)NC(=O)[C@H](CC(C)C)NC(=O)CNC(=O)[C@H](CCC(=O)O)NC2=O` [compound 379], the Nav1.4/Nav1.7 was 10 and the Nav1.5/Nav1.7 was 916.
For `C#CC[C@@H]1NC(=O)[C@@H]2CSSC[C@H](NC(=O)[C@H](Cc3ccc(O)cc3)NC(=O)[C@@H](N)CC#N)C(=O)N[C@@H](CCC(N)=O)C(=O)N[C@@H](CCCCN)C(=O)N[C@@H](Cc3c[nH]c4ccccc34)C(=O)N[C@@H](CCCC)C(=O)N[C@@H](Cc3c[nH]c4ccccc34)C(=O)N[C@@H]([C@@H](C)O)C(=O)N[C@H]3CSSC[C@H](NC(=O)[C@H](CCCNC(=N)N)NC(=O)[C@H](CC(C)C)NC(=O)CNC1=O)C(=O)N[C@@H](CCCCN)C(=O)N[C@@H](CC(C)C)C(=O)N[C@@H](Cc1c[nH]c4c(Br)cccc14)C(=O)N[C@H](C(=O)N[C@@H](CCCNC(=N)N)C(=O)N[C@@H](CCCCN)C(=O)N[C@@H](CCC(=O)O)C(=O)N[C@H](C(N)=O)[C@@H](C)CC)CSSC[C@H](NC(=O)[C@H](C)NC(=O)[C@H](CCCNC(=N)N)NC(=O)[C@H](CCCCN)NC(=O)[C@H](CO)NC(=O)[C@H](CC(=O)O)NC3=O)C(=O)N2` [compound 875], the pIC50 [1] was 7.60.
Work on `CCCC[C@@H]1NC(=O)[C@H](Cc2c[nH]c3ccccc23)NC(=O)[C@H](CCCCN)NC(=O)[C@H](CCC(N)=O)NC(=O)[C@@H](NC(=O)[C@H](Cc2ccc(O)cc2)NC(=O)[C@@H](N)CCCCNC(=O)CCOCCOCCOCCOCCOCCOCCOCCOCCOCCOCCOCCOCCN)CSSC[C@@H]2NC(=O)[C@@H]3CSSC[C@@H](C(=O)N[C@@H](CCCNC(=N)N)C(=O)N[C@@H](CCCCN)C(=O)N[C@@H](CCC(=O)O)C(=O)N[C@@H](Cc4c[nH]c5ccccc45)C(N)=O)NC(=O)[C@H](Cc4c[nH]c5ccccc45)NC(=O)[C@H](CC(C)C)NC(=O)[C@H](CCCCN)NC(=O)[C@H](CSSC[C@H](NC(=O)[C@H]([C@@H](C)O)NC(=O)[C@H](Cc4c[nH]c5ccccc45)NC1=O)C(=O)N[C@@H](CC(=O)O)C(=O)N[C@@H](CO)C(=O)N[C@@H](CCCCN)C(=O)N[C@@H](CCCNC(=N)N)C(=O)N[C@@H](C)C(=O)N3)NC(=O)[C@H](CCCNC(=N)N)NC(=O)[C@H](CC(C)C)NC(=O)CNC(=O)[C@H](CCC(=O)O)NC2=O` [compound 458] yielded a Nav1.4/Nav1.7 of 38 and a Nav1.5/Nav1.7 of 202.
